Source: US20110275644A1, “BIOLOGICAL MARKERS PREDICTIVE OF ANTI-CANCER RESPONSE TO INSULIN-LIKE GROWTH FACTOR-1 RECEPTOR KINASE INHIBITORS” (priority 2010, published 2011)

Experiments:
pERK = pERK in doxorubicin-treated A673 tumor cells; type: cell-based, human
IR and IGF-1R = experiment: receptor phosphorylation in doxorubicin-treated A673 tumor cells; type: cell-based, human
phospho-PRAS40 = experiment: Western blot, phospho-PRAS40 in H295R cells; type: cell-based, human
Method: (§1) Preparation of Protein Lysates and Western Blotting: Lysates for Western blotting were prepared as previously described (44). Antibodies included: IGF-1R (Santa Cruz), IR (Santa Cruz), phospho-p42/p44 (Cell Signaling Technologies), phospho-Akt (S473) (Cell Signaling Technologies), phospho-Akt (T308) (Cell Signaling Technologies), phosho-S6 (235/236) (Cell Signaling Technologies), phosphor-PRAS40 (Cell Signaling Technologies), and phosphor-IRS-1-Y612 (Biosource).

GEO (CRC) tumors = experiment: tumor xenograft anti-tumor efficacy; type: in vivo, nu/nu CD-1 mice; settings: OSI-906 50 mg/kg once-daily for 14 days; MAB391 every three days for a total of 5 doses
Excerpt: (§2) Animals: Female nu/nu CD-1 mice (6-8 weeks, 22-25 g) were purchased from Charles River Laboratories (Wilmington, Mass.) and maintained in an AAALAC-accredited facility at OSI Pharmaceuticals as described previously (12).
(§3) In vivo anti-tumor efficacy studies: Cells were harvested and implanted s.c. in the right flank of nu/nu CD-1 mice as described previously (12). Tumors were allowed to establish to 200±50 mm^3 in size before randomization into various treatment groups. […] Tumor volumes were determined from caliper measurements using the formula V=(length×width^2)/2. Tumor sizes and body weights were measured twice weekly. Tumor growth inhibition (TGI) was determined at different time points by the following formula: % TGI={1−[(Tt/T0)/(Ct/C0)]/1[C0/Ct}×100, where Tt=median tumor volume of treated at time t, T0=median tumor volume of treated at time 0, Ct=median tumor volume of control at time t, and C0=median tumor volume of control at time 0.

[1] = tested on: SK-N-AS (neuroblastoma) tumors; experiment: tumor xenograft anti-tumor efficacy; type: in vivo, nu/nu CD-1 mice
Excerpt: as §2, §3

phospho-IGF-1R [2] = molecular target: T1, phospho-IGF-1R (Homo sapiens, UniProt P08069); experiment: receptor phosphorylation in HT-29 CRC cells with insulin; type: cell-based; design: endogenous in cells; host or cells: human tumour cell lines (panel of nine; HT-29; MDAH-2774; H322, SK-N-AS, H295R, A673); settings: HT-29 cells treated with 5 or 50 μIU/mL insulin; OSI-906 3 μM or MAB391 3 μg/ml, 16 hours
T1 sequence (P08069 31-1367): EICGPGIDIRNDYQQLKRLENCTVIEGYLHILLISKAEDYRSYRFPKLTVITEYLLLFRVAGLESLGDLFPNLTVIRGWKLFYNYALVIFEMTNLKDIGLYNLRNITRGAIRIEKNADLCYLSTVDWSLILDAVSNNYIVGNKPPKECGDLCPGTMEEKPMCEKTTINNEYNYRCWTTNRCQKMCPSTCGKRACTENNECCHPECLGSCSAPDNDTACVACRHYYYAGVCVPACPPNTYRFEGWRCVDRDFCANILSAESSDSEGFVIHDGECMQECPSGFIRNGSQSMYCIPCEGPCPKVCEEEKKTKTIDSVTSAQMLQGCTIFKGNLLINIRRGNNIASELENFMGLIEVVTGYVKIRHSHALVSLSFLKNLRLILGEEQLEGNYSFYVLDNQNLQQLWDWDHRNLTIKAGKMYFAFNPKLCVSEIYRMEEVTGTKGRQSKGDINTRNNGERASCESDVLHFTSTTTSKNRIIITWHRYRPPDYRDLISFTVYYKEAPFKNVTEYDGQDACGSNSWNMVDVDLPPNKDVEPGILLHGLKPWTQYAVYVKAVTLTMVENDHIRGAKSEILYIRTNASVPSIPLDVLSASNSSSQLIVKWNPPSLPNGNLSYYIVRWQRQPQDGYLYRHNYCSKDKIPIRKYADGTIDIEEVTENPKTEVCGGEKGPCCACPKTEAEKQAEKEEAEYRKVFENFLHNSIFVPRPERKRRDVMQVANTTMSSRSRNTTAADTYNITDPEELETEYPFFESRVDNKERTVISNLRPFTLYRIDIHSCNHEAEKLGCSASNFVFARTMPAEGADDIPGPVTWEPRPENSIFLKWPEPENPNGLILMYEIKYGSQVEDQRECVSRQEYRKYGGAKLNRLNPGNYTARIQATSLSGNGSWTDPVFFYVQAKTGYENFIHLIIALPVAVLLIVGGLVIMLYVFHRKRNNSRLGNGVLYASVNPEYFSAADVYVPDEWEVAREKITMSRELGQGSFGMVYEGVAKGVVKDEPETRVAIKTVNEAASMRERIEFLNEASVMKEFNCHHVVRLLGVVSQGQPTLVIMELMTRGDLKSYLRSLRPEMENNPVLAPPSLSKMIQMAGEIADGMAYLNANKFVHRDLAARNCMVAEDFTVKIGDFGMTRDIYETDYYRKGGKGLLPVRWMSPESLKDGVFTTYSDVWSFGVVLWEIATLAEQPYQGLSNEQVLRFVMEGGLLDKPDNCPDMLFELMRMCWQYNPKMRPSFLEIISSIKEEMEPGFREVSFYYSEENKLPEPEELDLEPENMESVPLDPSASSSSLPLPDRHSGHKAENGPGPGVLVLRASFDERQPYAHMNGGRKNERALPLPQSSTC
Method: as §1
(§4) Analysis of RTK phosphorylation via a proteome array: Proteome Profiler arrays containing capture antibodies for 42 RTKs were from R&D systems (RTK Proteome Profile; R&D Systems, Minneapolis, Minn.) and processed according to manufacturer's protocol. pIGF-1R and pIR were determined by RTK capture array. Proteome profiler arrays housed 42 different RTKs. RTKs included on the array include: HER1, HER2, HER3, HER4, FGFR1, FGFR2a, FGFR3, FGFR4, IR, IGF-1R, Axl, Dtk, Mer, HGFR, MSPR, PDGFRα, PDGFRβ, SCFR, Flt-3, M-CSFR, c-Ret, ROR1, ROR2, Tie-1, Tie-2, TrkA, TrkB, TrkC, VEGFR1, VEGFR2, VEGFR3, MuSK, EphA1, EphA2, EphA3, EphA4, EphA6, EphA7, EphB1, EphB2, EphB4, EphB6. This array was used as an RTK capture assay for determining pIGF-1R and pIR levels. Capture antibodies specific to each RTK are used to bind RTKs in tumor cell extracts. […]

[3] = tested on: broad panel (n=116) of additional RTKs and other protein kinases; settings: at 1 μM; cited from earlier work
Colo205 tumors = experiment: tumor xenograft anti-tumor efficacy; design: species or system nu/nu CD-1 mice; settings: after treatment with OSI-906 in vivo for 10-14 days
Excerpt: as §2, §3

H460 tumors = experiment: tumor xenograft anti-tumor efficacy; design: species or system nu/nu CD-1 mice; settings: after treatment with OSI-906 in vivo for 10-14 days
Excerpt: as §2, §3

H295R tumors = experiment: tumor xenograft anti-tumor efficacy; design: species or system nu/nu CD-1 mice; settings: after treatment with OSI-906 in vivo for 10-14 days
Excerpt: as §2, §3

BxPC3 tumors = experiment: tumor xenograft anti-tumor efficacy; design: species or system nu/nu CD-1 mice; settings: after treatment with OSI-906 in vivo for 10-14 days
Excerpt: as §2, §3

FaDu tumors = experiment: tumor xenograft anti-tumor efficacy; design: species or system nu/nu CD-1 mice; settings: after treatment with OSI-906 in vivo for 10-14 days
Excerpt: as §2, §3

phospho-AKT [4] = experiment: in vivo pharmacodynamic analysis, GEO tumors; design: species or system nu/nu CD-1 mice; settings: GEO model
Method: Tumor samples were collected at specified time points and snap frozen in liquid nitrogen. Tumor lysates were prepared by homogenizing samples in Precellys 24 homogenizer (MO Bio Laboratories, Inc., CA) with tumor lysis buffer (1% Triton X-100, 10% glycerol, 50 mM HEPES (ph 7.4), 150 mM NaCl, 1.5 mM MgCl2, 1 mM EDTA supplemented with fresh protease inhibitor cocktail (Sigma, Mo.), phosphatase inhibitor cocktail (Sigma, Mo.), 10 mM NaF and 1 mM sodium orthovanadate). Tissue homogenates were clarified by centrifugation at 14,000 g for 5 min at 4° C. and supernatants were then analyzed by Western blot or phospho-RTK array as indicated.

phospho-AKT [5] = experiment: phospho-AKT in HT-29 CRC cells with insulin; type: cell-based, human; settings: HT-29 cells, basal or 5 or 50 μIU/mL insulin
Method: as §1

phospho-IGF-1R [6] = molecular target: T1, phospho-IGF-1R; experiment: receptor phosphorylation in MDAH-2774 cells; type: cell-based; design: endogenous in cells; host or cells: human tumour cell lines (MDAH-2774); settings: MDAH-2774 cells alone or with insulin, IGF-1 or IGF-2; OSI-906 3 μM or MAB391 3 μg/ml
Method: as §1, §4

[7] = tested on: MDAH-2774 OvCa tumor cells; experiment: growth inhibition assay (Cell Titer-Glo); type: cell-based, human
Excerpt: Cell Lines and Culture. Human cancer cell lines, were obtained from American Type Culture Collection (ATCC, Manassas, Va.), or the following additional indicated sources, and cultured in media as described. Tumor types are also indicated: H295R (adrenocortical carcinoma; ATCC), NCI-[…], NCI-[…], SW1573 (NSCLC; ATCC), […], BxPC3 (pancreatic; ATCC), OVCAR5 (ovarian; NCI;), MDAH-2774 (ovarian; ATCC), Igrov1 (ovarian; NCI), GEO (colon; Roswell Park Cancer Institute (RPCC)), HT-29 (colon; ATCC), RKO (colon; ATCC), […], 8226 (myeloma; ATCC), H929 (myeloma; ATCC), U266 (myeloma; ATCC), SKES1 (Ewings sarcoma; ATCC), RDES (Ewings sarcoma; ATCC), RD (rhabdomyosarcoma; ATCC), DU4475 (breast; ATCC), SKNAS (neuroblastoma; ATCC), 2650 (nasal SCC; ATCC), OVCAR4 (ovarian; NCI), A673 (Ewings sarcoma; ATCC), BT474 (breast; ATCC), 1386 (oral SCC; MSKCC, NY), 1186 (SCCHN; MSKCC, NY), Colo205 (colon; ATCC), HCT-15 (colon; ATCC), Fadu (oral SCC; ATCC), SKBR3 (breast; ATCC), 1483 (HNSCC; MSKCC, NY), HSC-2 (HNSCC; RIKEN BioResource Center, Tsukuba, Ibaraki, 305-0074, Japan). […] The cells were routinely screened for the presence of mycoplasma (MycoAlert, Cambrex Bio Science, Baltimore, Md.). For growth inhibition assays, cells were plated and allowed to proliferate for 24 hours. […] Cell viability was assayed using the Cell Titer-Glo reagent (Promega Corp., Madison, Wis.).

[8] = tested on: phospho-AKT or phospho-ERK; experiment: Western blot, downstream AKT and ERK signaling in tumor cell lines; type: cell-based, human; settings: OSI-906 3 μM or MAB391 3 μg/ml, 16 hour
Method: as §1

phospho-IRS1^Y612 = experiment: Western blot, phospho-IRS1 in tumor cell lines; type: cell-based, human; settings: A673, H322, and H295R tumor cell lines; OSI-906 3 μM or MAB391 3 μg/ml
Method: as §1

phospho-IGF-1R [9] = molecular target: T1, phospho-IGF-1R; experiment: RTK capture array, panel of nine tumor cell lines; type: cell-based; design: endogenous in cells; host or cells: human tumour cell lines (panel of nine; HT-29; MDAH-2774; H322, SK-N-AS, H295R, A673); settings: OSI-906 3 μM or MAB391 3 μg/mL; 16 hours; each cell line tested
Method: Analysis of RTK phosphorylation via a proteome array: Proteome Profiler arrays containing capture antibodies for 42 RTKs were from R&D systems (RTK Proteome Profile; R&D Systems, Minneapolis, Minn.) and processed according to manufacturer's protocol. pIGF-1R and pIR were determined by RTK capture array. Proteome profiler arrays housed 42 different RTKs. RTKs included on the array include: HER1, HER2, HER3, HER4, FGFR1, FGFR2a, FGFR3, FGFR4, IR, IGF-1R, Axl, Dtk, Mer, HGFR, MSPR, PDGFRα, PDGFRβ, SCFR, Flt-3, M-CSFR, c-Ret, ROR1, ROR2, Tie-1, Tie-2, TrkA, TrkB, TrkC, VEGFR1, VEGFR2, VEGFR3, MuSK, EphA1, EphA2, EphA3, EphA4, EphA6, EphA7, EphB1, EphB2, EphB4, EphB6. This array was used as an RTK capture assay for determining pIGF-1R and pIR levels. Capture antibodies specific to each RTK are used to bind RTKs in tumor cell extracts. An HRP-conjugated pan anti-phospho-tyrosine antibody is used to specifically detect phosphorylated RTKs.

[10] = A673 tumor cells, doxorubicin 300 nM

COc1cccc2c1C(=O)c1c(O)c3c(c(O)c1C2=O)C[C@@](O)(C(=O)CO)C[C@@H]3O[C@H]1C[C@H](N)[C@H](O)[C@H](C)O1 [doxorubicin, reference compound]
downstream signaling at the level of pERK following treatment (pERK; [10]): increased phosphorylation of downstream signaling at the level of pERK | phosphorylation of IR and IGF-1R following treatment (IR and IGF-1R; [10]): upregulated phosphorylation of both IR and IGF-1R

C[C@]1(O)C[C@@H](c2nc(-c3ccc4ccc(-c5ccccc5)nc4c3)c3c(N)nccn32)C1 [OSI-906, cis-3-[8-amino-1-(2-phenyl-quinolin-7-yl)-imidazo[1,5-a]pyrazin-3-yl]-1-methyl-cyclobutanol]
inhibition of pERK (pERK; A673 tumor cells treated with doxorubicin (300 nM), compared with MAB391): greater inhibition of pERK | effect on phospho-PRAS40 (phospho-PRAS40): decreased phospho-PRAS40 | mean TGI over the dosing period (GEO (CRC) tumors): 79% | mean tumor growth inhibition (TGI) over the dosing period ([1]; OSI-906 50 mg/kg once-daily for 14 days, MAB391 1 mg every three days intraperitoneally): 100% | % TGI ([1]; after treatment with OSI-906 in vivo for 10-14 days): 71% | inhibition of phospho-IGF-1R (phospho-IGF-1R [2]): fully inhibited | inhibition [3]: < 50% | % TGI (Colo205 tumors): 90% | % TGI (H460 tumors): < 30% | % TGI (H295R tumors): 85% | % TGI (BxPC3 tumors): 56% | % TGI (FaDu tumors): < 30% | inhibition of IR and IGF-1R phosphorylation (IR and IGF-1R; A673 tumor cells treated with doxorubicin (300 nM)): inhibits both IR and IGF-1R | effect on phospho-AKT in tumors (phospho-AKT [4]): decreased phospho-AKT in tumors | inhibition of phospho-AKT (phospho-AKT [5]): fully inhibited | inhibition of IGF-1R phosphorylation (phospho-IGF-1R [6]): fully inhibited | sensitivity to OSI-906 in vitro [7]: sensitive | decrease of phospho-AKT or phospho-ERK levels ([8]; H322, H295R, and A673 cells): to a greater extent than did MAB391 | effect on phospho-AKT levels ([8]; SK-N-AS (neuroblastoma) tumor cells): decrease phospho-AKT levels | inhibition of phosphorylation of IRS1^Y612 (phospho-IRS1^Y612): strongly inhibited | decrease of phospho-IGF-1R (phospho-IGF-1R [9]): > 90%
